Results as given in US11529347B2, “SHP2 phosphatase inhibitors and methods of use thereof” (Relay Therapeutics, Inc., priority 2016, dated 2022).

Target: SHP2 (Homo sapiens (Human), UniProt Q06124)
Assay: SHP2 Allosteric Inhibition Assay (DiFMUP prompt fluorescence)
Format: biochemical
Conditions: 0.25 nM SHP2 activated with 0.5 μM peptide IRS1_pY1172(dPEG8)pY1222; substrate DiFMUP 100 μM
Source text: SHP2 is allosterically activated through binding of bis-tyrosyl-phosphorylated peptides to its Src Homology 2 (SH2) domains. The latter activation step leads to the release of the auto-inhibitory interface of SHP2, which in turn renders the SHP2 protein tyrosine phosphatase (PTP) active and available for substrate recognition and reaction catalysis. The catalytic activity of SHP2 was monitored using the surrogate substrate DiFMUP in a prompt fluorescence assay format.
The inhibitor dose response curves were analyzed using normalized IC50 regression curve fitting with control based normalization.

IC50 [µM] | SMILES
< 10 | CC1(CN)CCCN(c2cnc3c(-c4ccccc4Cl)n[nH]c3n2)CC1 (stereo not shown) [Compound 13]
10 to 100 | CC(C)(N)C1CCN(c2cnc3c(-c4ccccc4Cl)n[nH]c3n2)CC1 [Compound 14]
< 10 | CC1(CN)CCN(c2cnc3c(-c4ccccc4)n[nH]c3n2)CC1 [Compound 15]
< 10 | N[C@@H]1CCCC12CCN(c1cnc3c(-c4ccccc4Cl)n[nH]c3n1)CC2 [Compound 16]
< 10 | NC1CC12CCN(c1cnc3c(-c4ccccc4Cl)n[nH]c3n1)CC2 (stereo not shown) [Compound 18]
10 to 100 | CC1(CN)CCN(c2cnc3c(-c4ncccc4Cl)n[nH]c3n2)CC1 [Compound 22]
< 10 | N[C@H]1CCC12CCN(c1cnc3c(-c4ccccc4Cl)n[nH]c3n1)CC2 [Compound 26]
< 10 | NCC1CCN(c2cnc3c(-c4cccc(Cl)c4)n[nH]c3n2)C1 (stereo not shown) [Compound 27]
< 10 | NC1CCC12CCN(c1cnc3c(-c4ccccc4Cl)n[nH]c3n1)CC2 (stereo not shown) [Compound 28]
10 to 100 | CNCC1(C)CCN(c2cnc3c(-c4ccccc4Cl)n[nH]c3n2)CC1 [Compound 36]
< 10 | NC1CCN(c2cnc3c(-c4ccccc4Cl)n[nH]c3n2)CC1 [Compound 38]
< 10 | COc1cccc(-c2n[nH]c3nc(N4CCC(C)(CN)CC4)cnc23)c1Cl [Compound 39]
< 10 | Clc1ccccc1-c1n[nH]c2nc(N3CCC4(CCCN4)CC3)cnc12 [Compound 41]
< 10 | COCC1(CN)CCN(c2cnc3c(-c4ccccc4Cl)n[nH]c3n2)CC1 [Compound 42]
< 10 | CC(N)C1CCN(c2cnc3c(-c4ccccc4Cl)n[nH]c3n2)CC1 (stereo not shown) [Compound 47]
10 to 100 | N[C@@H]1CC12CCN(c1cnc3c(-c4ccccc4Cl)n[nH]c3n1)CC2 [Compound 49]
< 10 | CC1(CN)CCN(c2cnc3c(-c4cccc(Cl)c4)n[nH]c3n2)CC1 [Compound 50]
< 10 | NCC1(CO)CCN(c2cnc3c(-c4ccccc4Cl)n[nH]c3n2)CC1 [Compound 51]
< 10 | N[C@@H]1[C@H]2CN(c3cnc4c(-c5cccc(Cl)c5)n[nH]c4n3)C[C@@H]12 [Compound F21]

Second part, the compound before the results:

SMILES | IC50 [µM]
CC1(N)CCN(c2cnc3c(-c4ccccc4Cl)n[nH]c3n2)CC1 [Compound 6] | < 10
Clc1ccccc1-c1n[nH]c2nc(N3C4CCCC3CC4)cnc12 [Compound 8] | 10 to 100
N[C@H]1CC12CCN(c1cnc3c(-c4ccccc4Cl)n[nH]c3n1)CC2 [Compound 9] | < 10
CC1(CN)CCN(c2cnc3c(-c4cccc(Cl)c4Cl)n[nH]c3n2)CC1 [Compound 10] | < 10
O=C1NCC2(CCN(c3cnc4c(-c5ccccc5Cl)n[nH]c4n3)CC2)N1 [Compound 11] | 10 to 100
NC(=O)C1(N)CCN(c2cnc3c(-c4cccc(Cl)c4)n[nH]c3n2)CC1 [Compound 12] | < 10
CC1(N)CCN(c2cnc3c(-c4ccc(Cl)cc4)n[nH]c3n2)CC1 [Compound 17] | < 10
CC1(CN)CCN(c2cnc3c(-c4ccncc4)n[nH]c3n2)CC1 [Compound 19] | < 10
NCC1(O)CCCN(c2cnc3c(-c4ccccc4Cl)n[nH]c3n2)CC1 (stereo not shown) [Compound 20] | < 10
NCC1(F)CCN(c2cnc3c(-c4ccccc4Cl)n[nH]c3n2)CC1 [Compound 24] | < 10
NCC1(O)CCN(c2cnc3c(-c4cccc(Cl)c4)n[nH]c3n2)CC1 [Compound 25] | < 10
CC1(CN)CCN(c2cnc3c(-c4ccc(Cl)cc4)n[nH]c3n2)CC1 [Compound 29] | < 10
NC(CO)C1CCN(c2cnc3c(-c4ccccc4Cl)n[nH]c3n2)CC1 (stereo not shown) [Compound 30] | < 10
CC1(N)CCN(c2cnc3c(-c4cccc(Cl)c4)n[nH]c3n2)CC1 [Compound 31] | < 10
COC1(CN)CCN(c2cnc3c(-c4ccccc4Cl)n[nH]c3n2)CC1 [Compound 32] | < 10
N[C@H]1CCN(c2cnc3c(-c4ccccc4Cl)n[nH]c3n2)C[C@@H]1O [Compound 33] | < 10
CC1(CN)CCN(c2cnc3c(-c4cccc(Cl)c4Br)n[nH]c3n2)CC1 [Compound 34] | < 10
N[C@H]1CCCC12CCN(c1cnc3c(-c4ccccc4Cl)n[nH]c3n1)CC2 [Compound 35] | < 10
N[C@@H]1CCC12CCN(c1cnc3c(-c4ccccc4Cl)n[nH]c3n1)CC2 [Compound 37] | 10 to 100
NCC1CCCN(c2cnc3c(-c4ccccc4Cl)n[nH]c3n2)CC1 (stereo not shown) [Compound 40] | < 10
CC1(CN)CCN(c2cnc3c(-c4ccccc4Cl)n[nH]c3n2)CC1 [Compound 43] | < 10
Clc1ccccc1-c1n[nH]c2nc(N3CC4CNCC4C3)cnc12 (stereo not shown) [Compound 44] | < 10
Clc1cccc(-c2n[nH]c3nc(N4CCCCC4)cnc23)c1Cl [Compound 45] | > 100
NCC1(N)CCN(c2cnc3c(-c4ccccc4Cl)n[nH]c3n2)CC1 [Compound 46] | < 10
CC1(CN)CCN(c2cnc3c(-c4cccc(Cl)c4F)n[nH]c3n2)CC1 [Compound 48] | < 10
NCC1(O)CCN(c2cnc3c(-c4ccccc4Cl)n[nH]c3n2)CC1 [Compound 52] | < 10
O=C1NCC2(CCCN(c3cnc4c(-c5ccccc5Cl)n[nH]c4n3)CC2)O1 (stereo not shown) [Compound 53] | 10 to 100
COc1ccccc1-c1n[nH]c2nc(N3CCC(C)(CN)CC3)cnc12 [Compound 54] | < 10
Clc1ccccc1-c1n[nH]c2nc(N3CCC4(CCNC4)C3)cnc12 (stereo not shown) [Compound 55] | 10 to 100
NC1(CO)CCN(c2cnc3c(-c4ccccc4Cl)n[nH]c3n2)CC1 [Compound 56] | < 10
